The values that follow come from PMC9106929 (Circulation research, 2022).

The assay addresses Piezo1 (Mus musculus, UniProt E2JF22). Nature of the assay: cell-attached single-channel patch clamp, open probability. The assay is classed as cell-based. The note with it: activator, 5 μM in pipette, -50 mV; effect absent in Piezo1-EC-KO cECs. For orientation: In patch-clamp work, channel activity is measured electrically.

Chain of Piezo1 (E2JF22 whole entry): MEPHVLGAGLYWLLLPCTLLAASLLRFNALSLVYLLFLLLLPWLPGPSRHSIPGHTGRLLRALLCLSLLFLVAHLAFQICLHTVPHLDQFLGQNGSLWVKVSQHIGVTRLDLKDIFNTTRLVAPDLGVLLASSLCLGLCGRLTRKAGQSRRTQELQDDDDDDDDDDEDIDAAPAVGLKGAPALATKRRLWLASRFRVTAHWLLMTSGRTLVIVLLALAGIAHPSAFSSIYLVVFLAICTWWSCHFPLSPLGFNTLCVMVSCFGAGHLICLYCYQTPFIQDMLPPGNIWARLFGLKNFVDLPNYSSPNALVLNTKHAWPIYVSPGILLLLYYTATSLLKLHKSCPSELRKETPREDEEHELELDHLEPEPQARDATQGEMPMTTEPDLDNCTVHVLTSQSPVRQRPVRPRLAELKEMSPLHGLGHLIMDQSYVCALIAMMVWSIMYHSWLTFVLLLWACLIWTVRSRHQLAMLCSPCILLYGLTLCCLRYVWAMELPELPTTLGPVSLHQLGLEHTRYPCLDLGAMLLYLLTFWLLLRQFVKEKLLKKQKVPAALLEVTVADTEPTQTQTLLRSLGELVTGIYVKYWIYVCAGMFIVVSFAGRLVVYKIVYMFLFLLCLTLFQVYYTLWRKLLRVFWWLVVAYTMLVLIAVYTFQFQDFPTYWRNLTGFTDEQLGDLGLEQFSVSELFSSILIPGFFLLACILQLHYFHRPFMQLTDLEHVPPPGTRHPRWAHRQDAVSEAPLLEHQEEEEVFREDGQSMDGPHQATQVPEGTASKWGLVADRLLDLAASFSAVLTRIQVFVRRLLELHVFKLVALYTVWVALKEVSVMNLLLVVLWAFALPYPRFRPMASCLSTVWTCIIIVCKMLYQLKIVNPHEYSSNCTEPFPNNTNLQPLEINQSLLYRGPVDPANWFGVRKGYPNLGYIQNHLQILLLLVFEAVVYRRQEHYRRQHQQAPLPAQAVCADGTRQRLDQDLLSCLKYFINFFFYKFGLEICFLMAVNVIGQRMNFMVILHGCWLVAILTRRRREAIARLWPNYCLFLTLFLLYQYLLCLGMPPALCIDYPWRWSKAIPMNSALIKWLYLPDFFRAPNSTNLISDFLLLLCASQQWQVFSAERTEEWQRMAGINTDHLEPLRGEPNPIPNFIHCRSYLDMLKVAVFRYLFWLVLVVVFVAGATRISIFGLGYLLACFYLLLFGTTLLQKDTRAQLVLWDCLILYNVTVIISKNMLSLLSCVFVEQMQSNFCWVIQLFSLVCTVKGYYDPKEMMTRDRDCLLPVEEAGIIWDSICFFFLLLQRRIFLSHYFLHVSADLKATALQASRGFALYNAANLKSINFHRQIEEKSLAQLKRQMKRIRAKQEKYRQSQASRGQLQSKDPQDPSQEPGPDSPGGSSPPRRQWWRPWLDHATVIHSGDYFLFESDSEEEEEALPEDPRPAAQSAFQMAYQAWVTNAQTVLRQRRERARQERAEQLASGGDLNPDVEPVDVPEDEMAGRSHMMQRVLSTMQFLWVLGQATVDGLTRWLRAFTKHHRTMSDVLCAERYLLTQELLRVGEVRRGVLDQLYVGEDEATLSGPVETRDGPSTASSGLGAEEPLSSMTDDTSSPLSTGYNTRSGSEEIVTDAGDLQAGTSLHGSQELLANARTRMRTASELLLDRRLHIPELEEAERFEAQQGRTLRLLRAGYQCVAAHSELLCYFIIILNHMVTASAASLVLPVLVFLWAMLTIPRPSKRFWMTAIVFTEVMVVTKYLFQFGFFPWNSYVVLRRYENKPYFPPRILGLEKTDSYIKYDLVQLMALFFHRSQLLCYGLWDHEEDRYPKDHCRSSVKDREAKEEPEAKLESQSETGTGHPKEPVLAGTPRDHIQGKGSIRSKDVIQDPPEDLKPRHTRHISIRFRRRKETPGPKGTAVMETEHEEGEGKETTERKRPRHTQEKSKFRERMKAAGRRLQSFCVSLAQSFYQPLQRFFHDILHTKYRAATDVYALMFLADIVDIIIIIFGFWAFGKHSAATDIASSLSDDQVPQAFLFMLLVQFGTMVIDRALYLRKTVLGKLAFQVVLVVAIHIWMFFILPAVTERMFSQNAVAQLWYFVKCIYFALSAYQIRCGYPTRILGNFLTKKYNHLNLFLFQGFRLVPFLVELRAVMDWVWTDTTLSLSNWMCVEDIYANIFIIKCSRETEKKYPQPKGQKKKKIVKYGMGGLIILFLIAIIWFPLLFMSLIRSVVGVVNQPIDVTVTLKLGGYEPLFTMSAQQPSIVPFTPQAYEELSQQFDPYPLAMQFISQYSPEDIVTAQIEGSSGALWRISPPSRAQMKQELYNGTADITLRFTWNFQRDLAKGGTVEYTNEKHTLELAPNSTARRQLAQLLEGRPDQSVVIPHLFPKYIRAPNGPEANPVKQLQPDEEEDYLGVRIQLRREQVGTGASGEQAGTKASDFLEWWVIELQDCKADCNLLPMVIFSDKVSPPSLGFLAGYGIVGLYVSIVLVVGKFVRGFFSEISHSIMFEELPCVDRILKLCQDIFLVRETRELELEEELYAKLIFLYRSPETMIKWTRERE

For `Clc1cccc(Cl)c1CSc1nnc(-c2cnccn2)s1` [Yoda1], the “cell-attached single-channel patch clamp, open probability” value is “increased the open probability of Piezo1-like currents in Piezo1-EC-Ctrl cECs but not in Piezo1-EC-KO”.
